Test results published in patent US20050065436A1, “Rapid and non-invasive optical detection of internal bleeding” (priority 2003, published 2005).

Experiment: NIR absorption and fluorescence spectra of indocyanine green
Format: physicochemical
Excerpt: Many NIR fluorescence compounds are potential candidates for the present application. One of examples, indocyanine green (ICG), because of its low toxicity, has been used in many clinical applications. Indocyanine green, molecular weight 775, is a tricarbocyanine type of green dye. FIG. 2 and FIG. 3 show the NIR absorption, 650-850 nm, and NIR fluorescence spectra, 650-900 nm, of ICG, respectively. ICG has little absorption in the visible light. However, it is easily excited by an NIR light source with high quantum efficiency. Diode laser light sources with a wavelength between […] is suitable for ICG excitation. The fluorescent peak has a large red shifted relatively to the excitation wavelength. The fluorescence peak at 810 nm is within the NIR window for tissue optics. Due to ICG has a very large fluorescent quantum yield and a distinct peak at 810 nm, a sensitivity of 0.5 μg/ml can be achieved easily. FIG. 3(a), (b), and (c) show the fluorescence spectra of ICG in blood samples with various concentration between 0.5-500 μg/ml

CC1(C)C(/C=C/C=C/C=C/C=C2\N(CCCCS(=O)(=O)O)c3ccc4ccccc4c3C2(C)C)=[N+](CCCCS(=O)(=O)[O-])c2ccc3ccccc3c21 [ICG, Indocyanine green]
NIR fluorescence spectra (FIG. 3): 650-900 nm
fluorescence peak (FIG. 3, concentrations 0.5-500 μg/ml): 810 nm
NIR absorption (absorption spectrum, FIG. 2): 650-850 nm
